For one experiment, the target named is T1, Alpha-1B adrenergic receptor (Rattus norvegicus, UniProt P15823).
T1 sequence (P15823 whole entry): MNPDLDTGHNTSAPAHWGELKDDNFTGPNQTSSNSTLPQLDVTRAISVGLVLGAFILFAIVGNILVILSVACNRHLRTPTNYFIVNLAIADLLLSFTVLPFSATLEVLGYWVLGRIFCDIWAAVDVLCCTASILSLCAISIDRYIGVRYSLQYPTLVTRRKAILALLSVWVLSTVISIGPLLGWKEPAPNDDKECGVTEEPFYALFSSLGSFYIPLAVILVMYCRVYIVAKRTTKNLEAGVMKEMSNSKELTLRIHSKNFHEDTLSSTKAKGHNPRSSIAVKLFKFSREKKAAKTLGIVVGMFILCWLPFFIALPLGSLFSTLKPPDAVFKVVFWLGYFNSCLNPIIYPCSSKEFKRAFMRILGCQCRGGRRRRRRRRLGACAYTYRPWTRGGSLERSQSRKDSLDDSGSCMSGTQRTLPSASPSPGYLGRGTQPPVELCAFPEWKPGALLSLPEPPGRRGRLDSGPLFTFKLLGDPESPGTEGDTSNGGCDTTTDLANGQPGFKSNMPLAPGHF
In words: DRUGMATRIX: Alpha-1B adrenergic receptor radioligand binding (ligand: prazosin). The experiment is classed as cell membranes, Wistar, Liver, Membrane. Particulars: Not Active = under 50% inhibition at 10 µM.
Regarding `C[C@]12CC[C@@H]3c4ccc(O)cc4CC[C@H]3[C@@H]1CC[C@@H]2O` [ESTRADIOL], the IC50 result is “Not Active”.

Take `CC[C@@H](CO)NCCN[C@@H](CC)CO` [ETHAMBUTOL]: the IC50 result is “Not Active”.

For `CC1(C)O[C@@H]2C[C@H]3[C@@H]4C[C@H](F)C5=CC(=O)C=C[C@]5(C)[C@H]4[C@@H](O)C[C@]3(C)[C@]2(C(=O)CO)O1` [FLUNISOLIDE], the IC50 result is “Not Active”.

A further experiment addresses T2, Thromboxane-A synthase (Homo sapiens, UniProt P24557).
T2 sequence (P24557 whole entry): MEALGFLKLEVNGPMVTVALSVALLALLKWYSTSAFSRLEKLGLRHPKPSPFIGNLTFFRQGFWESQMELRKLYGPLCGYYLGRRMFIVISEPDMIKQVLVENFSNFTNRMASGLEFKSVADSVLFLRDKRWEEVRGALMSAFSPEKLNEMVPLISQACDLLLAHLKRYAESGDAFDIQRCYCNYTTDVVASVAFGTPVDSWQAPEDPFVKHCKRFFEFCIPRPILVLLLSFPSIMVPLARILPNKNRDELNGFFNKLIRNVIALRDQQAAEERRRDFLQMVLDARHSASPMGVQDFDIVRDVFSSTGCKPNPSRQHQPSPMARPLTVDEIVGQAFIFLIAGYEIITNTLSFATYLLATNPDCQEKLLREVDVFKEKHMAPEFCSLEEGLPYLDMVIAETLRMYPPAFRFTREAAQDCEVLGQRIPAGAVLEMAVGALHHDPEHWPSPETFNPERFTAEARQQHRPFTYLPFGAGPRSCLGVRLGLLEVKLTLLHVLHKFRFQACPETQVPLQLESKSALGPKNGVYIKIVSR
In words: biochemical. Particulars: platelet. The experiment is classed as tissue-based, Platelet.
On to `C[C@]12CC[C@@H]3c4ccc(O)cc4CC[C@H]3[C@@H]1CC[C@@H]2O` [ESTRADIOL], for which the IC50 result is reported as “Not Active”.

As to `CC[C@@H](CO)NCCN[C@@H](CC)CO` [ETHAMBUTOL], the IC50 entry was “Not Active”.

As to `CC1(C)O[C@@H]2C[C@H]3[C@@H]4C[C@H](F)C5=CC(=O)C=C[C@]5(C)[C@H]4[C@@H](O)C[C@]3(C)[C@]2(C(=O)CO)O1` [FLUNISOLIDE], the IC50 entry was “Not Active”.

For a further experiment, the target named is Prostaglandin G/H synthase 1 (Homo sapiens, UniProt P23219). In words: biochemical. The experiment is classed as tissue-based, Platelet. The note with it: platelet.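 Also: inhibition of COX-1 enzyme activity, with arachidonic acid supplied as substrate; in other assays of this panel Not Active means under 50% inhibition at 10 µM.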
Chain of Prostaglandin G/H synthase 1 (P23219 whole entry): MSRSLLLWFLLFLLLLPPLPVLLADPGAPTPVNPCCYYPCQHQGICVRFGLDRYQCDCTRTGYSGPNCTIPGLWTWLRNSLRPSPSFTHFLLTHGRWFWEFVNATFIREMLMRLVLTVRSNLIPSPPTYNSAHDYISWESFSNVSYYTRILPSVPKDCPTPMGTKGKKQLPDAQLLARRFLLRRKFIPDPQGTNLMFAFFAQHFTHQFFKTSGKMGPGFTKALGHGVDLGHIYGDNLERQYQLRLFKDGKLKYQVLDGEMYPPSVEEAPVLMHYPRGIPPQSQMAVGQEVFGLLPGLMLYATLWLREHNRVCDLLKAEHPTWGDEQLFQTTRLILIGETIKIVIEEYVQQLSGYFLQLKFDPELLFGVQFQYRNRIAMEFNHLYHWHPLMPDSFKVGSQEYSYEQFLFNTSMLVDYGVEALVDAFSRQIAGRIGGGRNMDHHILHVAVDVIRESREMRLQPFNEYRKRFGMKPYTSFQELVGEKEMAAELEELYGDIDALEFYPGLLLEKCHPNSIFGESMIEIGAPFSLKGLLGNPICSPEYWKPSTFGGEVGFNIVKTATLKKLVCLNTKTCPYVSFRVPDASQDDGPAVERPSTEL
`C[C@]12CC[C@@H]3c4ccc(O)cc4CC[C@H]3[C@@H]1CC[C@@H]2O` [ESTRADIOL]: the IC50 result was “Not Active”.

On to `CC[C@@H](CO)NCCN[C@@H](CC)CO` [ETHAMBUTOL], for which the IC50 entry was “Not Active”.

In the case of `CC1(C)O[C@@H]2C[C@H]3[C@@H]4C[C@H](F)C5=CC(=O)C=C[C@]5(C)[C@H]4[C@@H](O)C[C@]3(C)[C@]2(C(=O)CO)O1` [FLUNISOLIDE], the IC50 result is “Not Active”.

In a further experiment the target is Glycine receptor (Rattus norvegicus, UniProt P22771+P24524+P07727+P20781). Also: in other assays of this panel Not Active means under 50% inhibition at 10 µM.
Assay: not given
The experiment is classed as cell membranes, Wistar, Spinal cord, Membrane.
Conditions: not given
Turning to `C[C@]12CC[C@@H]3c4ccc(O)cc4CC[C@H]3[C@@H]1CC[C@@H]2O` [ESTRADIOL], the IC50 entry is on record as “Not Active”.

Regarding `CC[C@@H](CO)NCCN[C@@H](CC)CO` [ETHAMBUTOL], the IC50 entry is “Not Active”.

For the molecule `CC1(C)O[C@@H]2C[C@H]3[C@@H]4C[C@H](F)C5=CC(=O)C=C[C@]5(C)[C@H]4[C@@H](O)C[C@]3(C)[C@]2(C(=O)CO)O1` [FLUNISOLIDE], the IC50 entry is “Not Active”.

In a further experiment the target is T3, Cathepsin G (Homo sapiens, UniProt P08311).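 Also: inhibition of Cathepsin G enzyme activity, tested on an AMC-conjugated peptide substrate; in other assays of this panel Not Active means under 50% inhibition at 10 µM.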
T3 sequence (P08311 whole entry): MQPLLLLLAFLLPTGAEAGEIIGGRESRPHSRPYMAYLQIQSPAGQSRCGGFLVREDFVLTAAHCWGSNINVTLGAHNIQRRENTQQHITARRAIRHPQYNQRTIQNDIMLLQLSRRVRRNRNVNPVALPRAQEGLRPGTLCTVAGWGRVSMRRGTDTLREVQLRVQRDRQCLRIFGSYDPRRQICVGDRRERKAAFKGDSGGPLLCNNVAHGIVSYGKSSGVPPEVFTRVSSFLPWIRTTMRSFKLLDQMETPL
Assay: not given
The note with it: neutrophil. The experiment is classed as tissue-based.
As for `C[C@]12CC[C@@H]3c4ccc(O)cc4CC[C@H]3[C@@H]1CC[C@@H]2O` [ESTRADIOL], the IC50 entry was “Not Active”.

As for `CC[C@@H](CO)NCCN[C@@H](CC)CO` [ETHAMBUTOL], the IC50 result was “Not Active”.

Regarding `CC1(C)O[C@@H]2C[C@H]3[C@@H]4C[C@H](F)C5=CC(=O)C=C[C@]5(C)[C@H]4[C@@H](O)C[C@]3(C)[C@]2(C(=O)CO)O1` [FLUNISOLIDE], the IC50 result was “Not Active”.

For another experiment, the target named is T4, Interstitial collagenase (Homo sapiens, UniProt P03956).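 Also: MMP-1 enzyme inhibition assay using a peptide substrate; in other assays of this panel Not Active means under 50% inhibition at 10 µM.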
T4 sequence (P03956 whole entry): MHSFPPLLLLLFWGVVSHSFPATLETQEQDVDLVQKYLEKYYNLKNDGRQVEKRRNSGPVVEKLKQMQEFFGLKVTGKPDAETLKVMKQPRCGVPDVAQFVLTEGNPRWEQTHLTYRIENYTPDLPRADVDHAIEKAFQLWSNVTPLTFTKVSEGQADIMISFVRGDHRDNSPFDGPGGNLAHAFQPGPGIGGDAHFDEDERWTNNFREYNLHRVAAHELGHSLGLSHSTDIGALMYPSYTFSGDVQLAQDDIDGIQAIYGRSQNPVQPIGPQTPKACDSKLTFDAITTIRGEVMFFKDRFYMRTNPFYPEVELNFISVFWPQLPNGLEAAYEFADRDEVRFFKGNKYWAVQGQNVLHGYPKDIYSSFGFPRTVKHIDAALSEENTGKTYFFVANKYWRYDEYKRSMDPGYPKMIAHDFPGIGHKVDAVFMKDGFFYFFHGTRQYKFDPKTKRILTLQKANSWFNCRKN
In words: biochemical. The experiment is classed as tissue-based, Rheumatoid synovial fibroblasts.
Conditions: not given
Consider `C[C@]12CC[C@@H]3c4ccc(O)cc4CC[C@H]3[C@@H]1CC[C@@H]2O` [ESTRADIOL], for which the IC50 entry is “Not Active”.

On to `CC[C@@H](CO)NCCN[C@@H](CC)CO` [ETHAMBUTOL], for which the IC50 entry is listed as “Not Active”.

With `CC1(C)O[C@@H]2C[C@H]3[C@@H]4C[C@H](F)C5=CC(=O)C=C[C@]5(C)[C@H]4[C@@H](O)C[C@]3(C)[C@]2(C(=O)CO)O1` [FLUNISOLIDE], the IC50 entry is given as “Not Active”.

In another experiment the target is T5, Leukotriene C4 synthase (Cavia porcellus, UniProt A6XA80).
T5 sequence (A6XA80 whole entry): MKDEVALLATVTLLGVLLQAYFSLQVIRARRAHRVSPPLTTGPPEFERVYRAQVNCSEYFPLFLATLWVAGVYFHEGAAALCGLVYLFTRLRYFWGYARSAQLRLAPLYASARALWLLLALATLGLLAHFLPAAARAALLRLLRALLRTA
Assay: not given
The experiment is classed as tissue-based, Lung.
Conditions: not given
Regarding `C[C@]12CC[C@@H]3c4ccc(O)cc4CC[C@H]3[C@@H]1CC[C@@H]2O` [ESTRADIOL], the IC50 entry was “Not Active”.

Consider `CC[C@@H](CO)NCCN[C@@H](CC)CO` [ETHAMBUTOL], for which the IC50 result is listed as “Not Active”.

With `CC1(C)O[C@@H]2C[C@H]3[C@@H]4C[C@H](F)C5=CC(=O)C=C[C@]5(C)[C@H]4[C@@H](O)C[C@]3(C)[C@]2(C(=O)CO)O1` [FLUNISOLIDE], the IC50 entry is given as “Not Active”.

In the next experiment the target is T6, C-X-C chemokine receptor type 1 (Homo sapiens, UniProt P25024). Also: in other assays of this panel Not Active means under 50% inhibition at 10 µM.
T6 sequence (P25024 whole entry): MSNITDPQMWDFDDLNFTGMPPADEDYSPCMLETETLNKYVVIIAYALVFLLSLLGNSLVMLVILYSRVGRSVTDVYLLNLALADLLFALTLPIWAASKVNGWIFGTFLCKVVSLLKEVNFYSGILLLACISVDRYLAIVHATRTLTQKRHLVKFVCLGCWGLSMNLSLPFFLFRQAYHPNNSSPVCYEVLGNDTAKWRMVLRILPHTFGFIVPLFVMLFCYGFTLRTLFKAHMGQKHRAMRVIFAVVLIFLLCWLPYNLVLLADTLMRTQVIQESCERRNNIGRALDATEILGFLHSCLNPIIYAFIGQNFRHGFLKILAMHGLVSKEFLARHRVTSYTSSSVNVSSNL
Assay: not given
Conditions: not given
On to `C[C@]12CC[C@@H]3c4ccc(O)cc4CC[C@H]3[C@@H]1CC[C@@H]2O` [ESTRADIOL], for which the IC50 entry is recorded as “Not Active”.

In the case of `CC[C@@H](CO)NCCN[C@@H](CC)CO` [ETHAMBUTOL], the IC50 entry was “Not Active”.

As for `CC1(C)O[C@@H]2C[C@H]3[C@@H]4C[C@H](F)C5=CC(=O)C=C[C@]5(C)[C@H]4[C@@H](O)C[C@]3(C)[C@]2(C(=O)CO)O1` [FLUNISOLIDE], the IC50 entry is recorded as “Not Active”.

A further experiment addresses T7, Neutrophil elastase (Homo sapiens, UniProt P08246).
T7 sequence (P08246 whole entry): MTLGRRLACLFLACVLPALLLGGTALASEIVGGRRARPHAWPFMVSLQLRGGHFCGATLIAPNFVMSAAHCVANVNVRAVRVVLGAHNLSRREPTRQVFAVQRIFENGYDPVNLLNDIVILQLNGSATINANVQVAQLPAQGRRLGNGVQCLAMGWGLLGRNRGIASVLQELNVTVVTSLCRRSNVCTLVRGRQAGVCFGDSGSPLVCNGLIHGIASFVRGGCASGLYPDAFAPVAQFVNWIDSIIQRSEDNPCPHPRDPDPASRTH
Assay: not given
The experiment is classed as tissue-based.
Conditions: not given
Turning to `C[C@]12CC[C@@H]3c4ccc(O)cc4CC[C@H]3[C@@H]1CC[C@@H]2O` [ESTRADIOL], the IC50 entry is reported as “Not Active”.

Consider `CC[C@@H](CO)NCCN[C@@H](CC)CO` [ETHAMBUTOL], for which the IC50 entry is reported as “Not Active”.

For the molecule `CC1(C)O[C@@H]2C[C@H]3[C@@H]4C[C@H](F)C5=CC(=O)C=C[C@]5(C)[C@H]4[C@@H](O)C[C@]3(C)[C@]2(C(=O)CO)O1` [FLUNISOLIDE], the IC50 result is recorded as “Not Active”.

The record behind these values is ChEMBL document CHEMBL1909046, “DrugMatrix in vitro pharmacology data”.
